From patent US20220259235A1, “EGFR Inhibitor, Composition, and Preparation Method Therefor” (BETTA PHARMACEUTICALS CO., LTD, priority 2019, published 2022)

Legend:
Ba/F3-Δ19del/T790M/C797S = Ba/F3-Δ19del/T790M/C797S (Homo sapiens, UniProt P00533, T790M/C797S, cells depend on it, form not given); experiment: Ba/F3-Δ19del/T790M/C797S cell proliferation assay (CellTiter Glo, 72 h); assay type: cell-based; conditions: CTG, numeric values, read-out: BaF3 Δ19del/T790M/C797S IC50
Description: (§1) Cell line: Ba/F3 cells with stable overexpression of Δ19del/T790M/C797S or L858R/T790M/C797S mutant genes, named Ba/F3-Δ19del/T790M/C797S and Ba/F3-L858R/T790M/C797S, and A431 EGFR wild-type cell line.
(§2) RPMI 1640 and 10% FBS and 1% PS; _EM, 10% PBS and 1% PS
(§3) a) Dilute the test compound (20 mM stock solution) to 10 mM with 100% DMSO as the starting concentration, and then serially dilute 3 times with a “9+0” concentration in 96-well dilution plate (Cat #P-05525, Labcyte);
(§4) b) Dilute compound solution thereof to 1:100 in medium to prepare 10-fold working solution;
(§5) a) Centrifuge the growth cells in logarithmic phase at 1000 rpm for 5 minutes, resuspend the cells in culture medium, and then count the cells;
(§6) b) Inoculate the cells into a 96-well cell culture plate with a density of 2000 cells/well;
(§7) a) The compound prepared in Step 2 was added to a cell plate with 15 μL per well at final concentrations of 1000, 333, 111.1, 37, 12.3, 4.1, 1.4, 0.5, 0.2, and 0 nM. The final concentration of DMSO was 0.1%. The blank control well is with medium (0.1% DMSO).
(§8) b) Incubate cells in an incubatorother 72 hours;
(§9) a) Take out the 96-well cell culture plate and add 50 μl CTG reagent (CellTiter Glo kit, promega, Cat #G7573);
(§10) b) Shake the plate for 2 minutes and let cool at room temperature for 10 minutes,
(§11) c) Read luminous signal value with Perkin Elmer reader.
(§12) Analysis of Experimental Data
(§13) The data were analyzed by GraphPad Prism 6.0 software to obtain the fitting curve of compound activity.
(§14) Fining compound IC50 from nonlinear regression equation:
(§15) Y=Min+(Max−Min)/(1+10^((LogIC50−X)*slope));
(§16) X: Logarithm of compound concentration; Y: luminous signal
(§17) As illustrated in examples, IC50 value is within the following range for the compound of the present invention: “A” represents “IC50≤50 nM”; “B” represents “50 nM<IC50<100 nM”.

[1] = Liver microsomal clearance test, dog; assay type: in vitro ADME; conditions: Dog liver microsomes, 0.5 mg/mL, NADPH
Description: (§18) Test 3 Liver Microsomal Clearance Test
(§19) 1. Prepare 0.5 mg/mL liver microsome diluent containing K-butter and MgCl2:
(§20) 2.1 Take 356 μL of the liver microsome diluent prepared above and add it to the preset wells of the incubation plate, the number of multiple wells n=1, mark it as the incubation plate.
(§21) 2.2 Take 4 μL of the positive control compound Verapamil (50 μM) and the working solution of the test compound (200 μM) into the above incubation plate containing 356 μL of liver microsome diluent, and mix well (The dilution solvent from the stock solution to the working solution is a mixed solvent of acetonitrile: methanol: water=1:1:2, and the final concentration of DMSO is ≤0.5%),
(§22) 2.3 Place the incubation plate in a 37° C. thermostatic oscillator (at shaking speed of 100 rpm) for pre-incubation with 10 min.
(§23) 2.4 Add 40 μL of 10 mM NADPH (add 40 μL of K-buffer to the wells without NADPH) to each reaction well to start the reaction and start timing.
(§24) 3. Sample collection and treatment:
(§25) 3.1 After adding NADPH to start the reaction, immediately take out 50 μL of the sample and add it to the precipitation plate pre-added with 400 μL of stop solution, and shake on an oscillator at 600 rpm for 5 min at room temperature as a 0 min sample.
(§26) 3.2 At the predetermined time points of 5 min, 15 min and 45 min, take out 50 μL of sample from the incubation plate and add it to the precipitation plate. The subsequent steps were the same as the treatment of 0 min sample. 3.3 After balancing, centrifuge above precipitation plate at 3200 rpm for 10 min at 4° C.
(§27) 3.4 Take 50 μL of the supernatant after centrifugation and add it to pre-added 20% acetonitrile water at appropriate proportion, shake on an oscillator at 600 rpm for 2 min at room temperature, mix well, and put it into the LC-MS/MS sampler for sample injection.
as §12
1. […]

hERG protein = target: T1, hERG protein (Homo sapiens, UniProt Q12809); experiment: hERG IC50 test (tracer/membranes fluorescence polarization); assay type: binding; conditions: hERG membranes and tracer, read-out: IC50 results of hERG protein to compound
T1 construct: purchased
T1 sequence (Q12809 whole entry): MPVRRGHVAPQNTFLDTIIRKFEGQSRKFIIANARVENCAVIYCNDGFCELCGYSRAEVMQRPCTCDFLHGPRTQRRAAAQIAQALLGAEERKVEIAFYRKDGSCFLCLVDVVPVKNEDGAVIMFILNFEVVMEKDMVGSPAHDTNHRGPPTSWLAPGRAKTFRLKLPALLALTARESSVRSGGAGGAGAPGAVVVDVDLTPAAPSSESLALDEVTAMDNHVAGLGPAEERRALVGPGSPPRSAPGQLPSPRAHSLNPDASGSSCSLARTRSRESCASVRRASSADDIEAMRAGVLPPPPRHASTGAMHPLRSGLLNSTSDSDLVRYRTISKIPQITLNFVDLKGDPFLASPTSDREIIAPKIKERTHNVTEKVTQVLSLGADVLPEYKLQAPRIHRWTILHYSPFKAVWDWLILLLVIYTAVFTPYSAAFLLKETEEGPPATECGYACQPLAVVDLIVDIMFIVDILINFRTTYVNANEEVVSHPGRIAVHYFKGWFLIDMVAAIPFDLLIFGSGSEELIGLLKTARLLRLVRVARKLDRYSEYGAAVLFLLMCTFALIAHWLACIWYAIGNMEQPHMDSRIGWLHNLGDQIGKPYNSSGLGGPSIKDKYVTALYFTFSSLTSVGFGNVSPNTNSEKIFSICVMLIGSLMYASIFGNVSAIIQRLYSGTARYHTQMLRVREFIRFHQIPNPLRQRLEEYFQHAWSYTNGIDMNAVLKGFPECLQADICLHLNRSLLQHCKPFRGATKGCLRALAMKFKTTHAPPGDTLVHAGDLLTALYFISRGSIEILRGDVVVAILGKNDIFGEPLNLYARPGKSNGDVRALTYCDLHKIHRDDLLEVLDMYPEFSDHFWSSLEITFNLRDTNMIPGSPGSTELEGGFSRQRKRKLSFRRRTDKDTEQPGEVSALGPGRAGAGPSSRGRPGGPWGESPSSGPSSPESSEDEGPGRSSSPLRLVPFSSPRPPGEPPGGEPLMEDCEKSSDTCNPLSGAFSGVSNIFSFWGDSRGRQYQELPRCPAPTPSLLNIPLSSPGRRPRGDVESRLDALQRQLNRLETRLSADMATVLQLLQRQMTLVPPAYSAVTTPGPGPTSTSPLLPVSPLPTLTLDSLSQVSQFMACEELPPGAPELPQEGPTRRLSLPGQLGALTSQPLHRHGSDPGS
Description: 1. Thaw hERG kits (Tracer, E-4031 and Membranes) at room temperature;
2. Add 10 μL of positive compound E-4031 and 10 μL of test compound (10 mM) to 384 well plate (Corning, Art. No. 3658);
3. E-4031 is sequentially 5-fold diluted by pure water (10 concentration points in total), and the test compound is sequentially 5-fold diluted by DMSO (10 concentration points in total).
4. Take 1 μL of all gradient concentrations and add them in parallel to the wells containing 24 μL Assay buffer, and dilute 25 times (take 3 μL of the maximum concentration of E-4031 and add it to 72 μL Assay buffer).
5. Add 10 μL Membranes to another black 384-well plate (Coming, Art.4511).
6. Take 5 μL of 25-fold diluted working solution of positive and test compounds, and add it to above-mentioned plate with 10 μL Membranes, 2 copies at each concentration.
7. Negative control: Add 5 μL Assay buffer to the well with 10 μL Membranes, 8 copies in parallel;
8. Positive control: Add 5 μL E-4031 (120 μM) to the well with 10 μL Membranes, 8 copies in parallel;
9. […]
10. Before measuring the fluorescence polarization, cover the analysis plate to protect the reagents from light and evaporation, and incubate at room temperature (20-25° C.) for 2 hours.
11. Read fluorescence polarization in PerkinElmer EnVision® Multilabel after incubation; […]

[2] = test system: A431 EGFR wild-type cell line; experiment: A431 EGFR wild-type cell proliferation assay (CellTiter Glo, 72 h); assay type: cell-based; conditions: Homo sapiens, A-431, CTG, read-out: A431 EGFR WT IC50
Description: as §1, §2, §3, §4, §5, §6, §7, §8, §9, §10, §11, §12, §13, §14, §15, §16, §17

[3] = Liver microsomal clearance test, mice; assay type: in vitro ADME; conditions: Mice liver microsomes, 0.5 mg/mL, NADPH
Description: as §18, §19, §20, §21, §22, §23, §24, §25, §26, §27, §12
1. […]

[4] = Liver microsomal clearance test, human; assay type: in vitro ADME; conditions: Human liver microsomes, 0.5 mg/mL, NADPH
Description: as §18, §19, §20, §21, §22, §23, §24, §25, §26, §27, §12
1. […]

Ba/F3-L858R/T790M/C797S = Ba/F3-L858R/T790M/C797S (Homo sapiens, UniProt P00533, T790M/C797S/L858R, cells depend on it); experiment: Ba/F3-L858R/T790M/C797S cell proliferation assay (CellTiter Glo, 72 h); assay type: cell-based; conditions: CTG, numeric values, read-out: BaF3 L858R/T790M/C797S IC50
Sequence of Ba/F3-L858R/T790M/C797S (P00533 whole entry T790M/C797S/L858R): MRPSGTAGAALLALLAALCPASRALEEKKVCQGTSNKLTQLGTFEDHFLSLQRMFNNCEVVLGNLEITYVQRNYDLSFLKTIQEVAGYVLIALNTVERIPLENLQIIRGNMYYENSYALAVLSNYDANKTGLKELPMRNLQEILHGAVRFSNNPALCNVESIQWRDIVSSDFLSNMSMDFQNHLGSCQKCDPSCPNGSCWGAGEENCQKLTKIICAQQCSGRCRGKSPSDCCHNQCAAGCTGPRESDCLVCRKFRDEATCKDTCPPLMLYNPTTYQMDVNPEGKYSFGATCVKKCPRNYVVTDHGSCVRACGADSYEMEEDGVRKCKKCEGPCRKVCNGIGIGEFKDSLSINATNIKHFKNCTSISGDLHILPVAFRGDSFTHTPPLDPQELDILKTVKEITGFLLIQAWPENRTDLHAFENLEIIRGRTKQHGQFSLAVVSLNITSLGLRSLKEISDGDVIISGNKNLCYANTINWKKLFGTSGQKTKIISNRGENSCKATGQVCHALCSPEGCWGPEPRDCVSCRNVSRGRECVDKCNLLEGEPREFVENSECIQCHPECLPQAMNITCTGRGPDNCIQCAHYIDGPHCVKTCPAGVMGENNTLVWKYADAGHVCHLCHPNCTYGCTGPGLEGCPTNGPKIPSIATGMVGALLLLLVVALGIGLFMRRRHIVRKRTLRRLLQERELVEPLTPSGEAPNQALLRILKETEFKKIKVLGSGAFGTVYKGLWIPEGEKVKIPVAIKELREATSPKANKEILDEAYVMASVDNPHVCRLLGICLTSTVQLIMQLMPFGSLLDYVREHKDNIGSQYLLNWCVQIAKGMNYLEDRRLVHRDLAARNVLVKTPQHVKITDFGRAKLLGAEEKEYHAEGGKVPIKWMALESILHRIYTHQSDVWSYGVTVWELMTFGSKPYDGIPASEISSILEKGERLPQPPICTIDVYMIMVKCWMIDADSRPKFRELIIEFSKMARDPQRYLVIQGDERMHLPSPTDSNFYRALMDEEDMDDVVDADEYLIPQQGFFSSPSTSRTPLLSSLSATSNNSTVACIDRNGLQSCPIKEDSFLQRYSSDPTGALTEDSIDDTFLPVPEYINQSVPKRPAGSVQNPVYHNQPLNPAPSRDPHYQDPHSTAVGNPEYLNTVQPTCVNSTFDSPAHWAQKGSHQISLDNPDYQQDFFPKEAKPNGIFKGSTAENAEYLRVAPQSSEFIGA
Description: as §1, §2, §3, §4, §5, §6, §7, §8, §9, §10, §11, §12, §13, §14, §15, §16, §17

[5] = Liver microsomal clearance test, monkey; assay type: in vitro ADME; conditions: Monkey liver microsomes, 0.5 mg/mL, NADPH
Description: as §18, §19, §20, §21, §22, §23, §24, §25, §26, §27, §12
1. […]

[6] = Liver microsomal clearance test, rat; assay type: in vitro ADME; conditions: Rat liver microsomes, 0.5 mg/mL, NADPH
Description: as §18, §19, §20, §21, §22, §23, §24, §25, §26, §27, §12
1. […]

EGFR Δ19del/T790M/C797S = EGFR Δ19del/T790M/C797S (Homo sapiens, UniProt P00533, T790M/C797S, form not given); experiment: EGFR Δ19del/T790M/C797S kinase test (mobility shift, Caliper EZ Reader); assay type: biochemical; conditions: kinase enzymatic activity, class symbols
Sequence of EGFR Δ19del/T790M/C797S (P00533 with tags, fused parts or gaps DEL746-750/T790M/C797S, form open): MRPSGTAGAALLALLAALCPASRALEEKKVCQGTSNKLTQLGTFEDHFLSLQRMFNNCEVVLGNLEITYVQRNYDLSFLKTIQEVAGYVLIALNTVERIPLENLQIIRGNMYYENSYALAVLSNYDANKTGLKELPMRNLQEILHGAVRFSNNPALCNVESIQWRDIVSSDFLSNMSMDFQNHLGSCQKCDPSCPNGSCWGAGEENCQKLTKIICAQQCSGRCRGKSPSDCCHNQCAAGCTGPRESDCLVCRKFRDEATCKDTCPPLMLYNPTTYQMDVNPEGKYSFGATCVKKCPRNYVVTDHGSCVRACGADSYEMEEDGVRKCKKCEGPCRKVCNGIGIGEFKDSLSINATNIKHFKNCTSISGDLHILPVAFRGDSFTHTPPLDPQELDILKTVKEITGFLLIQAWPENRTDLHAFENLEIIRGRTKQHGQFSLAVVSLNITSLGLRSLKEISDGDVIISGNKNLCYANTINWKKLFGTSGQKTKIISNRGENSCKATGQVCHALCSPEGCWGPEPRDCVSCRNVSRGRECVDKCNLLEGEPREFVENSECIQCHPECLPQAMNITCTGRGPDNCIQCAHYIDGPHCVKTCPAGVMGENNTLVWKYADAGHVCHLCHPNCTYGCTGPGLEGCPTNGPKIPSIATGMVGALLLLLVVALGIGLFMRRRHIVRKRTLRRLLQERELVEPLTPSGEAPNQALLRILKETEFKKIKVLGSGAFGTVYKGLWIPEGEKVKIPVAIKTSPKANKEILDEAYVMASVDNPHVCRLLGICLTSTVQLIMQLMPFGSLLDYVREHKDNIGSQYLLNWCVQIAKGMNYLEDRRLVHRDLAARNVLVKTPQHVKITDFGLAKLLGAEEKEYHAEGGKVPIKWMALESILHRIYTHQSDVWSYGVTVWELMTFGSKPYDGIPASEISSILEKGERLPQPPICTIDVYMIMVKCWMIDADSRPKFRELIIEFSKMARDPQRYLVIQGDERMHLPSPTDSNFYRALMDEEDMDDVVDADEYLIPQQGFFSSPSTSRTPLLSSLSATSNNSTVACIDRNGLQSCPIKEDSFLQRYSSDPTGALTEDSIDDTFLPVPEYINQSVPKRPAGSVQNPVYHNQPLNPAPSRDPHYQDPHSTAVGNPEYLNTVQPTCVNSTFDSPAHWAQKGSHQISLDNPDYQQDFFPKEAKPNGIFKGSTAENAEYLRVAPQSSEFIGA
Description: Mobility variation analysis was performed to determine the affinity of the compound for EGFRΔ19del/T790M/C797S. The enzymatic reaction scheme is as follows:
1. Prepare 1* kinase buffer as follows:
2. Preparation of compound concentration gradient: The test compound was tested with an initial concentration of 3000 nM or 100 nM, diluted in a 384 source plate to a 100% DMSO solution with 100-fold final concentration, and the compound is 3-fold diluted with Precision to 10 concentrations. A dispenser Echo 550 was used to transfer 250 nL 100-fold final concentration of the compound to the target plate OptiPlate-384F.
3. Prepare 2.5-fold final concentration of kinase solution with 1×Kinase buffer;
4. Add 10 μL of 2.5-fold final concentration of kinase solution to the compound well and the positive control well; add 10 μL of 1×Kinase buffer to the negative control well.
5. Centrifuge at 1000 rpm for 30 seconds, shake the reaction plate for well mixation, and then incubate at room temperature for 10 minutes.
6. Prepare a mixture of ATP and Kinase substrate at 5/3-fold final concentration with 1×Kinase buffer.
7. Add 15 μL mixture of 5/3-fold final concentration of ATP and substrate to start reaction.
8. Centrifuge the 384-well plate at 1000 rpm for 30 seconds, shake it well and then incubate it at room temperature for corresponding time.
9. Add 30 μL of stop detection solution to stop the kinase reaction, centrifuge at 1000 rpm for 30 seconds, shake it well.
10. Read conversion rate with Caliper EZ Reader.
% Inhibition=((Conversion%_max−Conversion%_sample)/(Conversion%_max−Conversion%_min))*100
Wherein: Conversion%_sample is the sample conversion rate reading; Conversion%_min: Mean value of negative control wells, representing the conversion rate reading of wells without enzymatic activity; Conversion%_max: Mean value of positive control wells, representing the conversion rate reading of wells without compound inhibition.
The dose-effect curve was fitted with concentration log value as X-axis and percentage inhibition rate as Y-axis. Log (inhibitor) vs. Response—Variable Slope of GraphPad Prism 5 was used to fit the dose-effect curve to obtain IC50 value of enzymatic activity for each compound.
The calculation formula is as Y=Bottom (Top−Bottom)/(1+10^((LogIC50−X)*HillSlope)).
As illustrated in examples, IC50 value is within the following range for the compound of the present invention: “A” represents “IC50≤1nM”; “B” represents “1 nM<IC50≤100nM”.

Sequence of Ba/F3-Δ19del/T790M/C797S (P00533 with tags, fused parts or gaps DEL746-750/T790M/C797S, form open): as above

For `COc1cc(N2CCC(N3CCN(C)CC3)CC2)c(C)cc1Nc1ncc(Br)c(Nc2ccc3nccnc3c2P(C)(C)=O)n1` [A, reference compound], the GI50 (Ba/F3-Δ19del/T790M/C797S) was 0.022 µM, the “Instrinsic clearance of liver microsomal protein, CLint” value (“Instrinsic clearance” below) [1] was 15.6 μL/min/mg proteins and the IC50 (hERG protein) was 13.5 µM. The IC50 [2] was 0.375 µM, the “Instrinsic clearance” value [3] was 16.4 μL/min/mg proteins and the “Instrinsic clearance” value [4] was 17.4 μL/min/mg proteins. For the same compound, the GI50 (Ba/F3-L858R/T790M/C797S) was 0.0167 µM, the “Instrinsic clearance” value [5] was 65.4 μL/min/mg proteins and the “Instrinsic clearance” value [6] was 22 μL/min/mg proteins.

In the case of `COc1cc(N2CCC(N3CCCCC3)CC2)c(-c2cnn(C)c2)cc1Nc1ncc(Cl)c(Nc2ccc3nccnc3c2P(C)(C)=O)n1` [Compound 5, (6-((2-((4-([1,4′-Dipiperidine]-1′-yl)-2-methoxy-5-(1-methyl-1H-pyrazole-4-yl)phenyl)amino)-5-chloropyrimidin-4-yl)amino)quinoxalin-5-yl)dimethylphosphine oxide], the GI50 (Ba/F3-Δ19del/T790M/C797S) is reported as 0.003 µM, the “Instrinsic clearance” value [1] is reported as 25.8 μL/min/mg proteins and the IC50 [2] is reported as 0.114 µM. The “Instrinsic clearance” value [3] was 11.2 μL/min/mg proteins, the “Instrinsic clearance” value [4] was 15.4 μL/min/mg proteins and the GI50 (Ba/F3-L858R/T790M/C797S) was 0.0065 µM. For the same compound, the “Instrinsic clearance” value [5] was 43.2 μL/min/mg proteins, the “Instrinsic clearance” value [6] was 0.8 μL/min/mg proteins and the IC50 (EGFR Δ19del/T790M/C797S) was at most 0.001 µM.
